This note sets out measurements from patent publication US20090220996A1, “In vitro Assay Methods for Classifying Embryotoxicity of Compounds” (RELIANCE LIFE SCIENCES PVT LTD., priority 2007, published 2009).

Converted amounts (≈) assume the structure as drawn. Like-named read-outs stand apart in the source and are kept apart here.

Test [1] has as its system human embryonic stem cells (hES). The test is described as follows: Cytotoxicity in undifferentiated human embryonic stem cells, day 15 (FACS with PI / CyQUANT). Particulars: for IC50: Homo sapiens, Embryonic stem cell. In kind it is cell-based. The protocol: In general, the presently disclosed embryotoxicity testing protocols comprise the following sequence of steps. Studies using embryoid bodies generally comprise: a) preparation of various concentrations of test solutions in culture medium or a desired solvent; b) preparation of a cell suspension by enzymatic digestion of human embryonic stem cell colonies; c) culturing the cell suspension for formation of embryoid bodies in the presence and absence of one or more test solutions, and incubation for several days (e.g., three days) in hanging drops; d) cultivation of the embryoid bodies in bacteriological petri dishes for several days (e.g., two days) under controlled conditions; e) transfer of the embryoid bodies into 96 well plates and incubation for several days (e.g., 10 days) in the presence of one or more test solutions; and f) detection of the viability of the embryoid bodies after 15 days by MTT assay, or fluorescent or luminescent method, and isolation of RNA for studying gene expression. Studies using human foreskin fibroblasts (HFF) generally comprise: a) preparation of various concentrations of test solutions in culture medium or a desired solvent; b) plating of HFF cells in 96 well plates in the presence or absence of one or more test solutions for 15 days, changing the media and test solutions every 2 days; and c) detection of the viability of HFF after 15 days by MTT assay, or fluorescent or luminescent method. Studies using human embryonic stem cells generally comprise: a) preparation of various concentrations of test solutions in culture medium or a desired solvent; b) preparation of hES colonies by manual passage in the presence and absence of one or more test solutions, and incubation for 15 days on matrigel coated plates changing the media and test solutions every 2 days; c) disruption of the colonies after 15 days with enzymes to form single cells; d) labeling of single cells with a fluorescently-labeled dye, such as propidium iodide (“PI”); and e) detection of the percentage viability with FACS as a measure of cytotoxicity. […]
After 2 hours incubation, 150 μl of assay medium containing the appropriate concentration of test chemical (150 μl volume contains 1.333× the final chemical concentration) was added. Appropriate blanks without the chemicals were used along with the test samples The cell cultures were incubated at 5% CO2 and 37° C. for 3 days. On day 3, test solution was removed with the care, so that the cell layer on the bottom of the wells was not disturbed. Next, 200 μl of freshly prepared test solution (final concentration/well as on day 0) was added, and the cell cultures were incubated at 5% CO2 and 37° C. for 3 days. This process was repeated on days 6, 9, and 12. Determination of cell growth inhibition was performed at day 15 of the assay using MTT reagent. Cytotoxicity for hES cells was calculated using flow cytometry. Briefly, cells were placed on matrigel coated plates along with different test compound concentrations. Media was replaced every 3 days along with the different test compound concentrations. At day 15, hES cells were collected by trypsinization, and after washing with PBS, the cells were incubated with PI for 10 minutes in the dark. Percent viability for various test compound concentrations was calculated using flow cytometry.
Cytotoxicity analysis of three cell types (hES, hEBs and HFF) was evaluated using the CyQUANT assay following compound treatment. All data were the mean of three independent experiments for each cell type. Data is represented as the mean±SE.

Test [2] concerns human embryoid bodies (hEBs). The test is described as follows: Morphological evaluation of embryoid bodies (photomicrographs). The settings on record: for concentration required to elicit a similar morphological response (loss of compactness, decreased EB size): day 7 hEBs, FIG. 4A-4D; for morphology of treated hEBs compared to controls: day 7, 10 μg/ml (FIG. 4E-c, 4F-c). It counts as cell-based. The protocol:
Hanging drops were made in hES media with LIF and bFGF for calculating IC50-hES cells, and in hES media without LIF and bFGF (hEB media) for the formation of EBs. On day 3 the hES colonies were collected along with the respective test compound concentration, whereas the hEBs were collected and transferred to 60 mm bacteriological petri plates for another 2 days. Morphology of the EBs was monitored under the microscope for the formation of EBs. On day 5 the hEBs were plated in a 96 well plate for MTT, as well as on a 6 well plate for RNA extraction. The media along with the appropriate test compound concentration was replaced in the 96 well and 6 well plates on days 7, 9, 11, and 13. On day 15, MTT was performed on the hES plate and the differentiated EBs. RNA was extracted from all the concentrations of 5-fluorouracil, and 1 μg of RNA was converted to cDNA to perform RT-PCR, real time PCR, or TLDA.

Where [3] appears, read: 360 h, Table 3, mean of 3 experiments, day 15, read-out: IC50-hES.
[4] abbreviates: Table 4, CyQuant cell viability assay, read-out: Human EST IC50 - hES.

`O=c1[nH]cc(F)c(=O)[nH]1` [5-Fluorouracil, 5-fluorouracil]: the IC50 (usually the concentration needed to halve the response being measured) in test [1] (setting [3]) came to 0.546 µg/mL (≈ 4.2 µM). In addition, in test [1] (hES, 1 μg/ml, day 15, FIG. 3A), the survival percentage is given as 30%. For the same molecule, the “effect on cell viability” value in test [1] (hES, up to 0.01 μg/ml, FIG. 3A) is “no major effect”. Besides, the “morphology of 5 day old EBs compared to control” value in test [2] (1 μg/ml, day 5, FIG. 2A) was “significant change in the morphology”.
On to `Cn1c(=O)c2c(ncn2C)n(C)c1=O` [Caffeine, caffeine], for which the IC50 in test [1] (setting [3]) and in test [1] (setting [4]) was 110 ± 12.5 µg/mL (≈ 566 µM) each time. For the same molecule, the survival result in test [1] (hES, 500 μg/ml, FIG. 3B) is recorded as “about 10%”. Also, the “morphology of 5 day old EBs” value in test [2] (increasing dose (50 and 500 μg/ml), day 5, FIG. 2B) is listed as “significant darkening of the cells”.
Consider `COc1ccc2c(c1)c(CC(=O)O)c(C)n2C(=O)c1ccc(Cl)cc1` [Indomethacin, indomethacin], for which the IC50 in test [1] (setting [3]) and in test [1] (setting [4]) was 73.4 ± 3.4 µg/mL (≈ 205 µM) throughout. In test [2], the “concentration required to elicit a similar morphological response (loss of compactness, decreased EB size)” value was 100 μg/ml.
As to `CC1(C)S[C@@H]2[C@H](NC(=O)Cc3ccccc3)C(=O)N2[C@H]1C(=O)O` [Penicillin G, penicillin G], the IC50-hES in test [1] (Table 3, mean of 3 experiments, day 15) turned out to be 2013 ± 23.5 µg/mL (≈ 6020 µM). Moreover, the “Human EST IC50 - hES” value in test [1] (Table 4, CyQuant cell viability assay) came to 2013 ± 23.5 µg/mL. In addition, the cell survival in test [1] (hES, 5000 μg/ml (highest dose), FIG. 3C) was 1-2%. The “morphology of 5 day old EBs” value in test [2] (5000 μg/ml (highest dose), day 5, FIG. 2C) is given as “non-significant darkening”; in test [2] (up to 1000 μg/ml, day 5, FIG. 2C), “no significant change”. Moreover, in test [2], the “concentration required to elicit a similar morphological response (loss of compactness, decreased EB size)” value worked out at 5000 μg/ml.
As to `NC(=O)NO` [Hydroxyurea, hydroxyurea], the IC50 in test [1] (setting [3]) and in test [1] (setting [4]) was 2.6 ± 0.2 µg/mL (≈ 34.2 µM) in each case. Moreover, in test [2], the “morphology of treated hEBs compared to controls” value was “loss of compactness and a decrease in the size of the EBs”.
On to `CS(=O)(=O)OCCCCOS(C)(=O)=O` [Busulfan, busulfan], for which the IC50 in test [1] (setting [3]) and in test [1] (setting [4]) was 2.1 ± 0.6 µg/mL (≈ 8.53 µM) throughout. For the same molecule, in test [2], the “morphology of treated hEBs compared to controls” value was “loss of compactness and a decrease in the size of the EBs”.
